# Laboratory results: US7722890B2, “Synthetic anti-Candida albicans oligosaccharide based vaccines” (Theracarb, Inc., priority 2002, dated 2010)
# Experiments:
# MAb C3.1 (IgG3) = test: competitive inhibition ELISA: binding of IgG MAb C3.1 to C. albicans mannan extract; set-up: species or system mouse
# Experimental: These monoclonal antibodies are IgM B6.1 and IgG C3.1. The affinity of these monoclonal antibodies for the synthesized propyl glycosides was determined in a competitive inhibition ELISA. The monoclonal antibodies, MAb B6.1 (IgM) and MAb C3.1 (IgG3) were produced as concentrated tissue culture supernatants and diluted ˜1:40,000 (B6.1) and ˜1:2000 (C3.1). C. albicans mannan obtained by 2-mercaptoethanol extraction of whole cells without subsequent affinity fractionation^27 was dissolved in PBS (10 μg/mL) and the solution was used to coat 96 well ELISA plates (100 μL, 18 h at 4° C.). The plate was washed five times with PBST containing Tween 20, 0.05% v/v) and blocked for 1 h at room temperature (2% BSA PBS, 100 μL). The monoclonal antibodies were mixed with inhibitor dissolved in PBST at concentrations in the range between 0.1 μM to 1 mM, and the resulting solutions were added to the coated microtitre plate in triplicate and incubated at room temperature for 18 h. The plate was washed with PBST (5×), and goat anti-mouse (IgG or IgM) antibody conjugated to horseradish peroxidase (diluted 1:2000, Kirkegaard and Perry Lab) in PBST (100 μL) was added and incubated for 1 h at room temperature. […]
# [1] = tested on: IgM monoclonal antibody B6.1; test: competitive inhibition ELISA: binding of IgM MAb B6.1 to C. albicans mannan extract; set-up: species or system mouse; settings: FIG. 7
# Experimental: These monoclonal antibodies are IgM B6.1 and IgG C3.1. The affinity of these monoclonal antibodies for the synthesized propyl glycosides was determined in a competitive inhibition ELISA. The monoclonal antibodies, MAb B6.1 (IgM) and MAb C3.1 (IgG3) were produced as concentrated tissue culture supernatants and diluted ˜1:40,000 (B6.1) and ˜1:2000 (C3.1). C. albicans mannan obtained by 2-mercaptoethanol extraction of whole cells without subsequent affinity fractionation^27 was dissolved in PBS (10 μg/mL) and the solution was used to coat 96 well ELISA plates (100 μL, 18 h at 4° C.). The plate was washed five times with PBST containing Tween 20, 0.05% v/v) and blocked for 1 h at room temperature (2% BSA PBS, 100 μL). The monoclonal antibodies were mixed with inhibitor dissolved in PBST at concentrations in the range between 0.1 μM to 1 mM, and the resulting solutions were added to the coated microtitre plate in triplicate and incubated at room temperature for 18 h. The plate was washed with PBST (5×), and goat anti-mouse (IgG or IgM) antibody conjugated to horseradish peroxidase (diluted 1:2000, Kirkegaard and Perry Lab) in PBST (100 μL) was added and incubated for 1 h at room temperature. The plate was washed with PBST (5×), 3,3′,5,5′-tetramethylbenzidine (TMB, 100 μL, Kirkegaard and Perry Lab) was added, and after 2 minutes the colour reaction was stopped by the addition of 1M phosphoric acid (100 μL). Absorbance was read at 450 nm and percent inhibition was calculated relative to wells containing antibody without inhibitor, and the concentration of ligand that gives 50% inhibition is quoted as an IC50 value.
Compound,affinity / inhibition curve for the IgG antibody (MAb C3.1 (IgG3); FIG. 8),affinity of IgM antibody B6.1 for propyl mannosides [1],affinity for the IgG antibody relative to the IgM MAb (MAb C3.1 (IgG3); FIG. 8 vs FIG. 7)
CCCO[C@@H]1O[C@H](CO)[C@@H](O)[C@H](O)[C@@H]1O[C@@H]1O[C@H](CO)[C@@H](O)[C@H](O)[C@@H]1O [compound 17],flattened binding curve,surprisingly high affinity,–
CCCOC1OC(CO)C(O)C(O)C1OC1OC(CO)C(O)C(O)C1OC1OC(CO)C(O)C(O)C1O (centres unmarked) [compound 18],–,surprisingly high affinity,two fold
propyl (1-thio-β-D-mannopyranosyl)-(1→2)-β-D-mannopyranotrioside [compound 32],–,falls between the tri and tetrasaccharide in affinity,–
